Results reported in ChEMBL document CHEMBL1128647, “Novel open-ring analogues of N5,N10-methylenetetrahydrofolic acid with selective activity against brain tumor” (1995).

Assays:
Format in all cases: functional
[1] = test system: Breast cancer cell line; assay: Cytotoxic activity against human breast cancer cell line
[2] = test system: Ovarian cancer cell line; assay: Cytotoxic activity against human ovarian cancer cell line
[3] = test system: Lung cancer cell line; assay: Cytotoxic activity against human lung cancer cell line
[4] = test system: Colon cancer cell line; assay: Cytotoxic activity against human colon cancer cell line
[5] = test system: Renal cancer cell line; assay: Cytotoxic activity against human renal cancer cell line
[6] = test system: Prostatic carcinoma cell; assay: Cytotoxic activity against human prostate cancer cell line
[7] = test system: SNB-75; assay: Cytotoxic activity against human CNS SNB-75 cancer cell line
[8] = test system: U-251; assay: Cytotoxic activity against human CNS U251 cancer cell line

Structure (SMILES) | GI50 [1] | GI50 [2] | GI50 [3] | GI50 [4] | GI50 [5] | GI50 [6] | GI50 [7] | GI50 [8]
Cc1nc(N)nc(O)c1N1CCN(c2ccc(S(N)(=O)=O)cc2)CC1 | > 100 µM | > 100 µM | > 0.0001 µM | > 100 µM | > 100 µM | > 100 µM | 0.1 µM | –
Cc1nc(N)nc(O)c1N1CCN(c2ccc(C(=O)O)cc2)CC1 | > 100 µM | > 100 µM | > 100 µM | > 100 µM | 1.39 µM | > 100 µM | > 100 µM | –
Cc1nc(N)nc(O)c1N1CCN(c2ccc(C#N)cc2)CC1 | > 0.0001 µM | 93 µM | > 100 µM | > 0.0001 µM | > 100 µM | > 0.0001 µM | 0.04 µM | –
Cc1nc(N)nc(O)c1N1CCN(c2ccc(S(=O)(=O)N(Cc3ccccc3)Cc3ccccc3)cc2)CC1 | 2.1 µM | 0.7 µM | 4.8 µM | 55 µM | 3.1 µM | 1.9 µM | – | 3.68 µM
Cc1nc(N)nc(O)c1N1CCN(c2ccc([N+](=O)[O-])cc2)CC1 | > 100 µM | > 100 µM | > 100 µM | > 100 µM | > 100 µM | > 100 µM | < 0.01 µM | –
CCOC(=O)CCC(NC(=O)c1ccc(N2CCN(c3c(C)nc(N)nc3O)CC2)cc1)C(=O)OCC (centres undefined) | > 100 µM | > 0.0001 µM | > 100 µM | > 100 µM | > 100 µM | > 100 µM | < 0.01 µM | –
Cc1nc(N)nc(O)c1N1CCN(c2ccc(C(=O)NC(CCC(=O)O)C(=O)O)cc2)CC1 (centres undefined) | > 100 µM | > 100 µM | > 100 µM | > 100 µM | > 0.0001 µM | > 100 µM | < 0.01 µM | –
